The target of one data set is T1, adenosine A2A receptor (Rattus norvegicus, UniProt P30543).
T1 construct: from tissue; host or cells: rat corpus striatum membrane preparation
Put plainly: Adenosine A2A receptor binding test (3H-CGS 21680 binding). Particulars: for inhibition at 0.1 µM: read-out: A2A Receptor inhibition rate (%) at 10^−7 mol/L. The method, then:
The test was carried out according to the method of Bruns et al. [Molecular Pharmacology, vol. 29, p.
Rat corpus striatum was suspended in an ice-cold 50 mmol/L tris(hydroxymethyl)aminomethane hydrochloride (referred to as “Tris HCl” hereinafter) buffer (pH 7.7) using a Polytron homogenizer (produced by Kinematica Co.). The suspension was centrifuged (50,000×g, 10 minutes), and the resulting precipitate was again suspended in the same amount of a 50 mmol/L Tris HCl buffer, followed by centrifugation under the same conditions. The resulting finalprecipitate was again suspended in a 50 mmol/L-Tris HCl buffer [containing 10 mmol/L of magnesium chloride and 0.02 unit/mg tissue of adenosine deaminase (produced by Sigma Co.)] so that the tissue concentration was 5 mg (wet weight)/mL.
The radioactivity on the filter was determined with a liquid scintillation counter (produced by Packard Instrument Co.).
In the equation, X represents Amount of binding in the presence of a medicament, Y represents Amount of nonspecific binding, and Z represents Amount of total binding.

For the next data set, the system named is male ddY mice. Put plainly: Forced swimming method (measurement of immobility time). Format: in vivo. Conditions: orally administered, 10 mg/kg, one hour before the test; versus solvent group (Steel-test). The method, then: Ten male ddY mice (21 to 26 g in body weight, Japan SLC) per group were used as test animals. During the preliminary feeding period, the animals were bred to be allowed to freely have feed (CRF-1; Oriental Yeast Co., Ltd, Tokyo) and water (tap water) in an animal room at a room temperature for 23±1° C. and a humidity of 55±5%.
Animals showing abnormal reactions in terms of spontaneous activity, myotonia, eyesight and the like were previously excluded. Each test compound was suspended in a 0.3% Tween 80 solution and orally administered one hour before the test. In the negative control group, 10 mL/kg of a 0.3% Tween 80 solution alone was orally administered. The immobility time was measured according to the Porsolt method [Arch. Int. Pharmacodyn., vol. 229, pp. 327-336 (1977)]. Namely, a cylindrical transparent acrylic water tank (10 cm in diameter and 25 cm in height) was filled with water at a temperature between 23±1° C. to a height of 9 cm, and the mice were forced to swim for 6 minutes. When the mice are put into water, they immediately start to swim trying to escape from the tank, but the motion gradually decreases 1 to 2 minutes thereafter. […] In order to reduce the effects of daily rhythm, the test was carried out using 5 of the 10 animals per group in the morning, and the remaining 5 animals in the afternoon. The immobility time was measured by observing 2 animals at the same time without telling the observers distinctions about the control group administered with the solvent alone and doses of the test compounds. Statistical analysis of the results was carried out by a multiple comparison Steel-test between the solvent-administered group and the test compound-administered group.

Data set [1] concerns CGS 21680-induced catalepsy. Put plainly: Activity on CGS 21680-induced catalepsy. Particulars: 10 mg/kg orally; for inhibition in vivo at 10 mg/kg: Mus musculus, po, read-out: Remission ratio (%); for Total score: total catalepsy score of 10 mice (maximum 50 points; 40 points or less = positive), one hour after administration. Type of data set: in vivo, mice. The essentials: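 Male ddY mice, 5 weeks old, ten per group, were dosed orally with compound at 10 mg/kg in 0.3% Tween 80 water, 30 min before CGS 21680 (10 μg/20 μL) was injected into the cerebral ventricle. Catalepsy was scored 1 h after compound dosing by placing forelimbs or hindlimbs on a 4.5 cm stand.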

Where [2] appears, read: test compound 10^−7 mol/L, 3H-CGS 21680 binding, rat corpus striatum.
[3] abbreviates: from total score of test group and control group.

Where two headings read alike, the source gives them in different places.

T1 sequence (P30543 whole entry): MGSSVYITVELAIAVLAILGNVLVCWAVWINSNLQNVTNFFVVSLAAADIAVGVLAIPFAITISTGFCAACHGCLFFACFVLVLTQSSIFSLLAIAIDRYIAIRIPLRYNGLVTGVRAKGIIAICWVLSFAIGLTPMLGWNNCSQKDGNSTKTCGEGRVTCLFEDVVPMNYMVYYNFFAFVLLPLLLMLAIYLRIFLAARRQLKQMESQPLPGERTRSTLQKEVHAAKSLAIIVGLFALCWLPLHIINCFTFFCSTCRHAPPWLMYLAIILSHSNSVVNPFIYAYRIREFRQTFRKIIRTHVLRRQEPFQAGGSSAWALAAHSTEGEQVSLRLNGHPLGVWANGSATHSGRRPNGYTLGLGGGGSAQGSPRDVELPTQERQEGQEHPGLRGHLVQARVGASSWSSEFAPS

As a reminder, the melting point is the temperature, or range, at which the solid turns liquid. For the molecule `CCCCc1cc2nc(-c3ccco3)nn2c(N)n1` [Compound 64, 5-Amino-7-butyl-2-(2-furyl)[1,2,4]triazolo[1,5-c]pyrimidine], the melting point is 155 to 155.3 °C. Besides, the inhibition at 0.1 µM on adenosine A2A receptor (setting [2]) stood at 81%.

In turn, `CC(=O)c1cc2nc(-c3ccco3)nn2c(N)n1` [Compound 38, 7-Acetyl-5-amino-2-(2-furyl)[1,2,4]triazolo[1,5-c]pyrimidine] displayed a melting point of 221.2 to 221.5 °C. Moreover, the inhibition at 0.1 µM at adenosine A2A receptor (setting [2]) amounted to 84%.

On to `CC(C)NC(=O)c1cc2nc(-c3ccco3)nn2c(N)n1` [Compound 89, 5-Amino-2-(2-furyl) [1,2,4]triazolo[1,5-c]pyrimidine-7-carboxylic acid isopropylamide], for which the inhibition at 0.1 µM at adenosine A2A receptor (setting [2]) is 89%. Further, the immobility time result with male ddY mice is listed as “significant effect of decreasing the immobility time”. Moreover, the inhibition in vivo at 10 mg/kg in data set [1] (setting [3]) is 84%. For the same molecule, in data set [1], the Total score amounted to 8.

For the molecule `Nc1nc(-c2ccccc2)cc2nc(-c3ccco3)nn12` [Compound 1, 5-Amino-2-(2-furyl)-7-phenyl[1,2,4]triazolo[1,5-c]pyrimidine], the melting point lay in the range of 218.5 to 219 °C. Moreover, at adenosine A2A receptor (setting [2]), the inhibition at 0.1 µM turned out to be 65%.

`Nc1nc(-c2cccs2)cc2nc(-c3ccco3)nn12` [Compound 51, 5-Amino-2-(2-furyl)-7-(2-thienyl)[1,2,4]triazolo[1,5-c]-pyrimidine]: the melting point was 232.2 to 232.3 °C. The inhibition at 0.1 µM at adenosine A2A receptor stood at 68%.

As for `Nc1nc(-c2ccc(CNCCc3ccccn3)cc2)cc2nc(-c3ccco3)nn12` [Compound 11, 5-Amino-2-(2-furyl)-7-{4-[2-(2-pyridyl)ethylaminomethyl]-phenyl}[1,2,4]triazolo[1,5-c]pyrimidine], the melting point lay in the range of 159.8 to 160.5 °C. The inhibition at 0.1 µM on adenosine A2A receptor (setting [2]) is 53%.

For `Nc1nc(C(=O)c2ccccc2)cc2nc(-c3ccco3)nn12` [Compound 39, 5-Amino-7-benzoyl 2-(2-furyl)[1,2,4]triazolo[1,5-c]-pyrimidine], the melting point lay in the range of 229.2 to 229.7 °C. The inhibition at 0.1 µM at adenosine A2A receptor (setting [2]) was 66%.

Consider `Nc1nc(C=O)cc2nc(-c3ccco3)nn12` [Compound 41, 5-Amino-7-formyl-2-(2-furyl)[1,2,4]triazolo[1,5-c]pyrimidine], for which the melting point was 270 °C (dec.). For the same molecule, at adenosine A2A receptor (setting [2]), the inhibition at 0.1 µM was 54%.

On to `Nc1nc(CCO)cc2nc(-c3ccco3)nn12` [Compound 67, 5-Amino-2-(2-furyl)-7-(2-hydroxyethyl)[1,2,4]triazolo[1,5-c]pyrimidine], for which the melting point lay in the range of 207.2 to 207.8 °C. For the same molecule, on adenosine A2A receptor (setting [2]), the inhibition at 0.1 µM was 91%.

Regarding `COc1ccc(CN(C)C(=O)c2cc3nc(-c4ccco4)nn3c(N)n2)cn1` [Compound 131, 5-Amino-2-(2-furyl)[1,2,4]triazolo[1,5-c]pyrimidine-7-carboxylic acid [N-methyl-N-(6-methoxypyridin-3-ylmethyl)]-amide], the inhibition at 0.1 µM on adenosine A2A receptor (setting [2]) came out at 51%. Moreover, in data set [1] (setting [3]), the inhibition in vivo at 10 mg/kg came out at 88%. Besides, the Total score in data set [1] came out at 6.

In the case of `CN(Cc1ccnc2ccccc12)C(=O)c1cc2nc(-c3ccco3)nn2c(N)n1` [Compound 113, 5-Amino-2-(2-furyl)[1,2,4]triazolo[1,5-c]pyrimidine-7-carboxylic acid [N-methyl-N-(4-quinolylmethyl)]amide], the inhibition at 0.1 µM at adenosine A2A receptor (setting [2]) was 66%. For the same molecule, the inhibition in vivo at 10 mg/kg in data set [1] (setting [3]) was 76%. Moreover, the Total score in data set [1] came to 12.

Turning to `Nc1nc(CCc2ccccc2)cc2nc(-c3ccco3)nn12` [Compound 66, 5-Amino-2-(2-furyl)-7-(2-phenylethyl)[1,2,4]triazolo[1,5-c]-pyrimidine], the melting point lay within 205 to 205.1 °C. On adenosine A2A receptor (setting [2]), the inhibition at 0.1 µM was 82%.

“5-Amino-2-(2-furyl)[1,2,4]triazolo[1,5-c]pyrimidine-7-carboxylic acid (1,2,3,4-tetrahydroisoquinolyl)amide [Compound 94]”: on adenosine A2A receptor (setting [2]), the “A2A Receptor inhibition rate (%) at 10^−7 mol/L” value is 95%. For the same molecule, the immobility time entry in the data set on male ddY mice is given as “significant effect of decreasing the immobility time”. The “Number of animals showing remission” value in data set [1] (cases with catalepsy score of 4 points or less in 10 cases) was 10. In data set [1] (setting [3]), the “Remission ratio (%)” value worked out at 90%. Further, the Total score in data set [1] is 5.

In the case of `Nc1nc(C(=O)c2ccc(F)cc2)cc2nc(-c3ccco3)nn12` [Compound 40, 5-Amino-7-(4-fluorobenzoyl)-2-(2-furyl)[1,2,4]triazolo-[1,5-c]pyrimidine], the inhibition at 0.1 µM on adenosine A2A receptor (setting [2]) came to 58%. Besides, the inhibition in vivo at 10 mg/kg in data set [1] (setting [3]) came to 94%. Further, the Total score in data set [1] is 3.

Consider `Nc1nc(C#CC2(O)CCCC2)cc2nc(-c3ccco3)nn12` [Compound 69, 5-Amino-2-(2-furyl)-7-[2-(1-hydroxycyclopentyl)ethynyl][1,2,4]triazolo[1,5-c]pyrimidine], for which the inhibition at 0.1 µM at adenosine A2A receptor (setting [2]) is 78%. In data set [1] (setting [3]), the inhibition in vivo at 10 mg/kg is 96%. This molecule also returned a Total score in data set [1] of 2.

The values above are taken from US20060058320A1, “[1,2,4] Triazolo[1,5-c]pyrimidine derivatives” (KYOWA HAKKO KOGYO CO., LTD., priority 2002, published 2006).
